Measured values published in patent US11389415B2, “Methods of regulating cannabinoid receptor activity-related disorders and diseases” (The United States of America as represented by the …, priority 2012, dated 2022).
“Also recorded” adds a separate entry of the source. Like-named read-outs stand apart in the source and are kept apart here.

Experiments:
U87 = test: tumor cell growth, U87; conditions: Table 6
MCF7 = test: tumor cell growth, MCF7; conditions: Table 6
A549 = test: tumor cell growth, A549; conditions: read-out: IC50 (uM), A549 (NSCLC); Table 6
U251 = test: tumor cell growth, U251; conditions: Table 6
A172 = test: tumor cell growth, A172; conditions: Table 6
U118 = test: tumor cell growth, U118; conditions: read-out: IC50 (uM), U118 (CNS); Table 6
CAPAN = test: tumor cell growth, CAPAN; conditions: Table 6
HEPG2 = test: tumor cell growth, HEPG2; conditions: Table 6
GL261 = test: tumor cell growth, GL261; conditions: Table 6
LN-18 = test: tumor cell growth, LN-18; conditions: Table 6
PANC-1 = test: tumor cell growth, PANC-1; conditions: Table 6
Du-145 = test: tumor cell growth, Du-145; conditions: read-out: IC50 (uM), Du-145 (Prostate C); Table 6
MDAMB231 = test: tumor cell growth, MDAMB231; conditions: Table 6
PC3 [1] = test: tumor cell growth (CTG), PC3
HT29 [2] = test: tumor cell growth (CTG), HT29
HT29 [3] = test: Thymidine (Thy) 96 well, HT29; conditions: read-out: IC50 (uM), HT29 (Colon Cancer)
HEP3B [4] = test: tumor cell growth (CTG), HEP3B
HCT116 [5] = test: tumor cell growth (CTG), HCT116
HCT116 [6] = test: Thymidine (Thy) 96 well, HCT116; conditions: read-out: IC50 (uM), HCT116 (Colon Cancer)
NCIH460 = test: Thymidine (Thy) 96 well, NCIH460; conditions: read-out: IC50 (uM), NCIH460 (NSCLC)
H460 = test: tumor cell growth (CTG), H460 / NCIH460
LN-229 = test: tumor cell growth (CTG), LN-229 / LN229
PC3 [7] = test: [3H]-Thymidine incorporation in 96-well plates (Thy), PC3; conditions: read-out: IC50 (uM), PC3 (Prostrate Cancer)
HEP3B [8] = test: [3H]-Thymidine incorporation in 96-well plates (Thy), HEP3B; conditions: read-out: IC50 (uM), HEP3B (Liver Cancer)
LN229 = test: [3H]-Thymidine incorporation in 96-well plates (Thy), LN229; conditions: read-out: IC50 (uM), LN229 (CNS Cancer)
HepG2 cells [9] = test: [3H]-Thymidine incorporation assay in HepG2 cells; type: cell-based, human
Description: (§1) Maintenance and Treatment of Cell Lines. Human HepG2 hepatocarcinoma cells and human U87MG glioma cells (ATCC, Manassas, Va.) were maintained in EMEM medium supplemented with 1% L-glutamine, 1% sodium pyruvate, 1% penicillin/streptomycin, and 10% FBS (Hyclone, Logan, Utah). The human 1321N1 astrocytoma cells (European Collection of Cell Cultures, Sigma-Aldrich) were cultured in Dulbecco's modified Eagle's medium supplemented with 10% FBS and penicillin/streptomycin. All cell lines were cultured at 37° C. in 5% CO2, and the medium was replaced every 2-3 days.
(§2) Cells were seeded in 12-well plates at approximately 50,000 cells/well and incubated at 37° C. After 24 hours, the wells were rinsed with PBS and replaced with serum-free medium containing the appropriate concentration of the test compounds. After another 24-hour incubation at 37° C., 1 μCi of [^3H]-thymidine was added to each well and incubated at 37° C. for 16 hours. [^3H]-Thymidine incorporation into DNA was monitored after the cells were washed twice with PBS and then lysed in 600 μL of 0.1N NaOH for 30 minutes with shaking. The lysate was then mixed with 3 mL of liquid scintillation cocktail (Beckman Coulter, Inc., Brea, Calif.), and radioactivity was measured by liquid scintillation counting using Beckman Coulter LS6000IC Scintillation Counter. Data are shown as CPM incorporated compared to the control cells.

1321N1 cells = test: Mitogenesis / [3H]-thymidine incorporation in 1321N1 cells; type: cell-based, human; conditions: compound alone
Description: as §1
as §2, with “[^3H]-Thymidine Incorporation Assay. Cells” for “Cells”

U87MG cells = test: [3H]-Thymidine incorporation in U87MG cells; type: cell-based, human; conditions: compound alone
Description: as §1, §2

HepG2 cells [10] = test: cAMP accumulation in HepG2 cells; type: cell-based, human; conditions: β-agonists at 10 μM
Description: cAMP Accumulation. HepG2 cells were seeded in 96-well plates and grown to confluency. […] The levels of cAMP accumulated in cells were determined and normalized to the amount of protein per well.

Akt and ERK1/2 = test: phosphorylation of Akt and ERK1/2 in HepG2 cells (Western blot); type: cell-based, human; conditions: 1 μM, 5, 10 and 30 minutes
Description: Western Blotting. Cells were lysed with RIPA buffer containing EGTA and EDTA (Boston BioProducts, Ashland, Mass.). The lysis buffer was mixed with a protease inhibitor cocktail (Sigma-Aldrich). Protein concentrations were measured using the bicinchoninic acid reagent (Thermo-Pierce Biotechnology, Inc., Rockford, Ill.). […] Western blots were performed according to standard methods. The visualization of immunoreactive bands was performed using the ECL Plus Western Blotting Detection System (GE Healthcare, NJ) and their quantification was done by volume densitometry using Image J software and normalization to β-actin. […] The antibodies were used at a dilution recommended by the manufacturer.

HepG2 cells [11] = test: Cell cycle analysis by flow cytometry in HepG2 cells; type: cell-based, human; conditions: HepG2, 1 μM, up to 24 hours
Description: Cell Cycle Analysis. Cell cycle distributions were performed by flow cytometry on propidium iodide-stained nuclei prepared by the NIM technique. DNA histograms of at least 10,000 cells acquired on a Becton-Dickinson FACScanto II (BD Biosciences, San Jose, Calif.) were deconvoluted using the Multicycle program (Phoenix Flow Systems) for estimates of the percentage of cells in the G0/1, S, and G2+M phases of the cell cycle. Debris and doublets were removed from the analysis by software algorithms.

HepG2 cells [12] = test: Apoptosis assay (annexin V/PI flow cytometry) in HepG2 cells; type: cell-based, human; conditions: HepG2, 1 μM, 24 hours
Description: Apoptosis Assay. The degree of apoptosis induced by drug treatment was assayed by flow cytometry using the Alexa Fluor® 488 annexin V/Dead Cell Apoptosis Kit (Invitrogen) following the standard manufacturer's protocol. […] Cells were subsequently harvested after a 24-hour incubation, washed in cold PBS, and resuspended in 100 μL of 1× annexin-binding buffer to maintain a density˜1×10^6 cells/mL, after which 5 μL Alexa Fluor® 488 annexin V and 1 μL 100 μg/mL propidium iodide were added to the cell suspensions. Cells were then incubated at room temperature for 15 minutes and 400 μL 1× annexin-binding buffer was added followed by gentle mixing. Stained cells were analyzed on a BDFACSCanto II flow cytometer.

Structure (SMILES): COc1ccc(C[C@@H](C)NC[C@H](O)c2cc(O)cc(O)c2)cc1 [RR-MF, (R,R′)-4-methoxyfenoterol]
- IC50 (uM), U87 (CNS) (U87): N.E.
- IC50 (uM), MCF7 (Breast C) (MCF7): N.E.
- IC50 (A549): > 50 µM
- IC50 (uM), U251 (CNS) (U251): N.E.
- IC50 (uM), A172 (CNS) (A172): N.E.?
- IC50 (U118): > 50 µM
- IC50 (uM), CAPAN (Pancreatic C) (CAPAN): N.E.
- IC50 (uM), HEPG2 (Liver C) (HEPG2): N.E.
- IC50 (uM), GL261 (CNS) (GL261): N.E.?
- IC50 (uM), LN-18 (CNS) (LN-18): N.E.?
- IC50 (uM), PANC-1 (Pancreatic C) (PANC-1): N.E.
- IC50 (Du-145): > 50 µM
- IC50 (uM), MDAMB231 (Breast C) (MDAMB231): N.E.
- IC50 (PC3 [1]; read-out: IC50 (uM), PC3 (Prostate C), Table 6): > 50 µM
- IC50 (PC3 [1]; read-out: IC50 (uM), PC3 (Prostrate Cancer), 96 well CTG 1 day treatment): > 50 µM
- IC50 (PC3 [1]; read-out: IC50 (uM), PC3 (Prostrate Cancer), 96 well CTG 2 days treatment): > 50 µM
- IC50 (PC3 [1]; read-out: IC50 (uM), PC3 (Prostrate Cancer), 384well CTG 3 days treatment −1): > 50 µM
- IC50 (HT29 [2]; read-out: IC50 (uM), HT29 (Colon C), Table 6): > 50 µM
- IC50 (HT29 [2]; read-out: IC50 (uM), HT29 (Colon Cancer), 96 well CTG 1 day treatment): > 50 µM
- IC50 (HT29 [2]; read-out: IC50 (uM), HT29 (Colon Cancer), 96 well CTG 2 days treatment): > 50 µM
- IC50 (HT29 [2]; read-out: IC50 (uM), HT29 (Colon Cancer), 384well CTG 3 days treatment −1): > 50 µM
- IC50 (HT29 [3]; 96 well Thy 2 days treatment): > 50 µM
- IC50 (HT29 [3]; 96 well Tye 1 day treatment): > 50 µM
- IC50 (HEP3B [4]; read-out: IC50 (uM), HEP3B (Liver C), Table 6): > 50 µM
- IC50 (HEP3B [4]; read-out: IC50 (uM), HEP3B (Liver Cancer), 96 well CTG 1 day treatment): > 50 µM
- IC50 (HEP3B [4]; read-out: IC50 (uM), HEP3B (Liver Cancer), 96 well CTG 2 days treatment): > 50 µM
- IC50 (HEP3B [4]; read-out: IC50 (uM), HEP3B (Liver Cancer), 384well CTG 3 days treatment −1): > 50 µM
- IC50 (HEP3B [4]; read-out: IC50 (uM), HEP3B (Liver Cancer), 384well CTG 3 days treatment −2): > 50 µM
- IC50 (HCT116 [5]; read-out: IC50 (uM), HCT116 (Colon C), Table 6): > 50 µM
- IC50 (HCT116 [5]; read-out: IC50 (uM), HCT116 (Colon Cancer), 96 well CTG 1 day treatment): > 50 µM
- IC50 (HCT116 [5]; read-out: IC50 (uM), HCT116 (Colon Cancer), 96 well CTG 2 days treatment): > 50 µM
- IC50 (HCT116 [5]; read-out: IC50 (uM), HCT116 (Colon Cancer), 384well CTG 3 days treatment −1): > 50 µM
- IC50 (HCT116 [5]; read-out: IC50 (uM), HCT116 (Colon Cancer), 384well CTG 3 days treatment −2): > 50 µM
- IC50 (HCT116 [6]; 96 well Thy 2 days treatment): > 50 µM
- IC50 (HCT116 [6]; 96 well Tye 1 day treatment): > 50 µM
- IC50 (NCIH460; 96 well Thy 2 days treatment): > 50 µM
- IC50 (NCIH460; 96 well Tye 1 day treatment): > 50 µM
- IC50 (H460; read-out: IC50 (uM), H460 (NSCLC), Table 6): > 50 µM
- IC50 (H460; read-out: IC50 (uM), NCIH460 (NSCLC), 96 well CTG 1 day treatment): > 50 µM
- IC50 (H460; read-out: IC50 (uM), NCIH460 (NSCLC), 96 well CTG 2 days treatment): > 50 µM
- IC50 (H460; read-out: IC50 (uM), NCIH460 (NSCLC), 384well CTG 3 days treatment −1): > 50 µM
- IC50 (H460; read-out: IC50 (uM), NCIH460 (NSCLC), 384well CTG 3 days treatment −2): > 50 µM
- IC50 (LN-229; read-out: IC50 (uM), LN229 (CNS Cancer), 96 well CTG 1 day treatment): > 50 µM
- IC50 (LN-229; read-out: IC50 (uM), LN229 (CNS Cancer), 96 well CTG 2 days treatment): > 50 µM
- IC50 (LN-229; read-out: IC50 (uM), LN229 (CNS Cancer), 384well CTG 3 days treatment −1): > 50 µM
- IC50 (LN-229; read-out: IC50 (uM), LN-229 (CNS), Table 6): > 50 µM
- IC50 (PC3 [7]; 96 well Thy 2 days treatment): > 50 µM
- IC50 (PC3 [7]; 96 well Tye 1 day treatment): > 50 µM
- IC50 (HEP3B [8]; 96 well Thy 2 days treatment): 2.35 µM
- IC50 (HEP3B [8]; 96 well Tye 1 day treatment): 2.4 µM
- IC50 (LN229; 96 well Thy 2 days treatment): > 50 µM
- IC50 (LN229; 96 well Tye 1 day treatment): > 50 µM

Structure (SMILES): C[C@H](Cc1ccc(O)cc1)NC[C@H](O)c1cc(O)cc(O)c1 [(R,R′)-Fen, (R,R′)-Fenoterol]
- % Change in HepG2 cells ([3H]-thymidine incorporation) (HepG2 cells [9]; 1 μM, 24 h): 51.3%
- EC50 (HepG2 cells [9]; Homo sapiens, HepG2, read-out: IC50/EC50 (μM): EC50 (ED50) for increase in [3H]-thymidine incorporation): 1.17 ± 0.37 µM
- effect on proliferation / [3H]-thymidine incorporation (1321N1 cells): reduced proliferation in 1321N1 cells
- effect on cellular proliferation (U87MG cells): had no effect
- cAMP production (HepG2 cells [10]): Neither (R)-isoproterenol nor (R,R′)-Fen, at 10 μM, elicited an increase in cAMP production
- Akt and ERK activation (Akt and ERK1/2): induced a time-dependent increase in Akt and ERK activation
- cell cycle / sub-G1 events (HepG2 cells [11]): no significant alterations of the cell cycle; also recorded: No significant increase in sub-G1 events
- apoptosis compared to control (HepG2 cells [12]): markedly reduced apoptosis
